Source: US20060166287A1, “Method for Identifying compounds for suppressing metastasizing tumor cells” (priority 2002, published 2006)

System: c-Met
Experiment: c-Met activation (ERK phosphorylation) by pro-HGF versus active HGF in HT29 and BSp73Asv4-7Δ15 cell lines, Western blot
Assay type: cell-based
Conditions: HT29 and BSp73Asv4-7Δ15 cells with competent CD44 isoforms, FIG. 5
Excerpt: HGF/SF is secreted as single-stranded precursor which is processed by serum proteinases (Shimomura, 1995) or plasminogen activators of the urokinase type (Naldini, 1995) into an active a form and β subunits. Investigations into whether CD44 is involved in the activation of HGF was employed HGF precursor which was purchased and isolated from Drosophila Schneider cells (S2) for the activation of c-Met (FIG. 5).
(B) Western blot analyses to investigate the cleavage of the precursors pro-HGF (HGFp; enriched from Drosophila Schneider cells (S2)) into the active form HGFa by means of CD44 in the HT29 and BSp73Asv4-7Δ15 cell lines. The pro form is unable, despite the presence of competent CD44 isoforms, to mediate ERK phosphorylation by c-Met activation. In contrast thereto, processed, active HGF is capable, with the assistance of competent CD44 isoforms, of c-Met activation.
(C) Western blot analysis to investigate the cleavage of the precursor pro-HGF (HGFp; commercial) into the active form HGFa by means of CD44 in the HT29 and BSp73Asv4-7Δ15 cell lines. The pro form is unable, despite the presence of competent CD44-isoforms, to mediate ERK phosphorylation by c-Met activation. In contrast thereto, processed, active HGF is capable, with the assistance of competent CD44 isoforms, of c-Met activation.

pro-HGF: single-stranded HGF/SF precursor, purchased or isolated from Drosophila Schneider cells (S2)
Ability to activate c-Met / mediate ERK phosphorylation: unable | Ability to activate c-Met / mediate ERK phosphorylation (listed as pro form of HGF): unable to activate c-Met
